Several values for one entry are separate records, joined by “and”; a condition that tells them apart may be missing. Equal values may be shown once.
Assays:
AChE = AChE (Homo sapiens, UniProt P22303); assay: biochemical; conditions: for IC50: modified Ellman, read-out: AChE inhibitory activity IC50
Procedure: (§1) The effects of twenty synthetic compounds were evaluated for AChE and BuChE inhibition using the modified method of Ellman et al.[33] […] AChE and BuChE are found in the brains of mammals. Genetically, structurally, and kinetically, the two kinds vary. In the human brain, BuChE is found in glial cells and neurons as well as in plaques and tangles in AD patients. […] BuChE may replace AChE by hydrolysing brain acetylcholine in some conditions, such as in mice nullizygote for AChE or in AD patients in advanced stages of the disease[34]^,[35].

Aβ1–42 = biological target: T1, Aβ1–42 (Homo sapiens, UniProt P05067); assay: Inhibition of Aβ1-42 self-induced aggregation (BioVision ligand screening kit); type: biochemical; conditions: µM
T1 construct: purchased BioVision K570-100
Excerpt: Screening Aβ42 ligands that could prevent aggregation is critical for developing potential therapeutic treatments. In BioVision’s Beta-Amyloid 1–42 (Aβ42) Ligand Screening kit, a dye binds to the beta-sheets of an aggregated amyloid peptide resulting in an intense fluorescent product at wave length 450 nm using a BIOLINE ELISA reader. In the presence of an Aβ42 ligand, this reaction is impeded/abolished resulting in a decrease or total loss of fluorescence. This assay is useful in screening Aβ42 ligands for developing potential therapeutic agents against AD[42]. The assessment was performed according to BioVision’s Beta-Amyloid 1–42 (Aβ42) Ligand Screening Kit Catalog No. K570-100.

BuChE = BuChE (Homo sapiens, UniProt P06276); assay: biochemical; conditions: modified Ellman; read-out: BuChE inhibitory activity IC50
Procedure: as §1

AChE, sequence (P22303 32-614): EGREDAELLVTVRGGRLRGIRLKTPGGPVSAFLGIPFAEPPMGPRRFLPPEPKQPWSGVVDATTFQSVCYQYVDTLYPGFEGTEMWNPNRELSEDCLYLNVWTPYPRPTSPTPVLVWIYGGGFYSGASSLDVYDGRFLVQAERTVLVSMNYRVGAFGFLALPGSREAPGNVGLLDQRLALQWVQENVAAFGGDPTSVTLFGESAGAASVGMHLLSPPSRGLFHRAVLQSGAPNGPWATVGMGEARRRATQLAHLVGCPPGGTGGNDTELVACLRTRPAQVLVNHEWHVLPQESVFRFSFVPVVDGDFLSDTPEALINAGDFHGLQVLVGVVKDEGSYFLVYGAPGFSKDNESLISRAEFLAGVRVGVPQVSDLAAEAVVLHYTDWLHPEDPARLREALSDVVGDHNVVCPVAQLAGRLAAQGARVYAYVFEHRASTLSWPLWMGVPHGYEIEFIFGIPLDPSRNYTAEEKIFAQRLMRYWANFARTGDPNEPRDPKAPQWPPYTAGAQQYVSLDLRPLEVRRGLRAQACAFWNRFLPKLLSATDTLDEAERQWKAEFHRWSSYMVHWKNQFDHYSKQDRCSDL
BuChE, sequence (P06276 29-602): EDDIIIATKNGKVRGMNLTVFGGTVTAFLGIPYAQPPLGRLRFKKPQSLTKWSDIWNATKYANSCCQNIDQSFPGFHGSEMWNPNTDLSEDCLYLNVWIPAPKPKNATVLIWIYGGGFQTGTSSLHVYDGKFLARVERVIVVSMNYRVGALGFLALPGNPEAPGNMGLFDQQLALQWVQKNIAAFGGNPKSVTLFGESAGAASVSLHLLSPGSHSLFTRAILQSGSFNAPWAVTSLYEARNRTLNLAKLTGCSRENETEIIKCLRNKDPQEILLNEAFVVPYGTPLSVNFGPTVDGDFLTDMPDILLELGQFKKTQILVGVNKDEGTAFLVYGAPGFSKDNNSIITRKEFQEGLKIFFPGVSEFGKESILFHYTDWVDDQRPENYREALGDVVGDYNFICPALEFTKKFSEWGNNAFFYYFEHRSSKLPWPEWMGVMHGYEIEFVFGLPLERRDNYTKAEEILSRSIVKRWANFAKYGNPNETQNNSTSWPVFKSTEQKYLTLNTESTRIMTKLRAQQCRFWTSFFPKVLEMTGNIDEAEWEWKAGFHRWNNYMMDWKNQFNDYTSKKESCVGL
T1 sequence (P05067 672-713 limits assumed): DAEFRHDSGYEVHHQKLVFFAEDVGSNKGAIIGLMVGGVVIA

## CS(=O)(=O)n1cc(/C=C(\C(=O)N2CCN(c3ncccn3)CC2)c2ccc(Cl)cc2)c2ccccc21 [Compound 4c, (E)-2–(4-Chlorophenyl)-3-[1-(methylsulfonyl)-1H-indol-3-yl]-1-[4-(pyrimidin-2-yl)piprazin-1-yl]prop-2-en-1-one]
AChE
  AChE inhibition in words, compared to reference drugs (tacrine and donepezil): less activity

## CS(=O)(=O)n1cc(/C=C(\C(=O)N2CCCCC2)c2ccc(Cl)cc2)c2ccccc21 [Compound 4a, (E)-2–(4-Chlorophenyl)-3-[1-(methylsulfonyl)-1H-indol-3-yl]-1-(pipridin-1-yl)prop-2-en-1-one]
Aβ1–42
  IC50: 22.4 µM
BuChE
  IC50: 41.7 to 74.1 nM and 36.9 to 80.4 nM
AChE
  IC50: 132 to 164 nM

## COc1cc(-c2c(C#N)c(N)n(/N=C/c3cn(S(C)(=O)=O)c4ccccc34)c(=O)c2C#N)cc(OC)c1OC
other
  melting point: 210 to 212 °C

## COc1ccc(-c2c(C#N)c(N)n(/N=C/c3cn(S(C)(=O)=O)c4ccccc34)c(=O)c2C#N)cc1 [Compound 9a, (E)-6-Amino-4-(4-methoxyphenyl)-1-{[(1-(methylsulfonyl)-1H-indol-3-yl)methylene]amino}-2-oxo-1,2-dihydropyridine-3,5-dicarbonitrile]
AChE
  AChE inhibition in words, compared to reference drugs (tacrine and donepezil): less activity

## CCn1c(N)c(C(=O)N/N=C/c2cn(S(C)(=O)=O)c3ccccc23)sc1=S [Compound 10a, (E)-4-Amino-3-ethyl-N'-{[1-(methylsulfonyl)-1H-indol-3-yl]methylene}-2-thioxo-2,3-dihydrothiazole-5-carbohydrazide]
AChE
  AChE inhibition in words, compared to reference drugs (tacrine and donepezil): less activity

## CS(=O)(=O)n1cc(C=C(C(=O)N2CCC(Cc3ccccc3)CC2)c2ccc(Cl)cc2)c2ccccc21 [Compound 4d, (E)-1–(4-Benzylpipridin-1-yl)-2–(4-chlorophenyl)-3-[1-(methylsulfonyl)-1H-indol-3-yl]prop-2-en-1-one]
Aβ1–42
  IC50: 8.76 µM
BuChE
  IC50: 41.7 to 74.1 nM and 36.9 to 80.4 nM
AChE
  IC50: 132 to 164 nM

## CS(=O)(=O)n1cc(/C=C(/C(=O)O)c2ccc(Cl)cc2)c2ccccc21 [Compound 3b, (E)-2–(4-Chlorophenyl)-3-[1-(methylsulfonyl)-1H-indol-3-yl]acrylic acid]
AChE
  AChE inhibition in words, compared to reference drugs (tacrine and donepezil): less activity

## CS(=O)(=O)n1cc(/C=C/C(=O)c2ccc(NC(=O)Cc3ccccc3)cc2)c2ccccc21 [Compound 5a, (E)-N-{4-[3–(1-(methylsulfonyl)-1H-indol-3-yl)acryloyl]phenyl}-2-phenylacetamide]
AChE
  AChE inhibition in words, compared to reference drugs (tacrine and donepezil): less activity

## CS(=O)(=O)n1cc(/C=C(/C(=O)Nc2cccnc2)c2ccc(Cl)cc2)c2ccccc21 [Compound 4b, (E)-2–(4-Chlorophenyl)-3-[1-(methylsulfonyl)-1H-indol-3-yl]-N-(pyridin-3-yl)acrylamide]
Aβ1–42
  IC50: 13.8 µM
BuChE
  IC50: 41.7 to 74.1 nM and 36.9 to 80.4 nM
AChE
  IC50: 132 to 164 nM

## COc1ccc(-c2c(C#N)c(N)n(/N=C/c3cn(S(C)(=O)=O)c4ccccc34)c(=O)c2C#N)cc1OC [Compound 9b, (E)-6-Amino-4–(3,4-dimethoxyphenyl)-1-{[(1-(methylsulfonyl)-1H-indol-3-yl)methylene]amino}-2-oxo-1,2-dihydropyridine-3,5-dicarbonitrile]
AChE
  AChE inhibition in words, compared to reference drugs (tacrine and donepezil): less activity

## COc1cc(/C(=C\c2cn(S(C)(=O)=O)c3ccccc23)C(=O)O)cc(OC)c1OC [Compound 3c, (E)-3-[1-(Methylsulfonyl)-1H-indol-3-yl]-2–(3,4,5-trimethoxyphenyl)acrylic acid]
Aβ1–42
  IC50: 6.91 µM
BuChE
  IC50: 117 nM
AChE
  IC50: 41.1 nM

## CS(=O)(=O)n1cc(/C=C(/C(=O)O)c2ccccc2)c2ccccc21
other
  melting point: 181 to 183 °C

## CS(=O)(=O)n1cc(/C=C/C(=O)c2cccc(NC(=O)CN3CCC(Cc4ccccc4)CC3)c2)c2ccccc21 [Compound 6a, (E)-2–(4-Benzylpiperidin-1-yl)-N-{3-[3–(1-(methylsulfonyl)-1H-indol-3-yl)acryloyl]phenyl}acetamide]
AChE
  AChE inhibition in words, compared to reference drugs (tacrine and donepezil): less activity

## CS(=O)(=O)n1cc(/C=N/NC(=O)Cc2ccc(Cl)cc2)c2ccccc21 [Compound 7c, (E)-2–(4-Chlorophenyl)-N'-{[1-(methylsulfonyl)-1H-indol-3-yl]methylene}acetohydrazide]
Aβ1–42
  IC50: 14.9 µM
BuChE
  IC50: 76 nM
AChE
  IC50: 89.1 nM

## CS(=O)(=O)n1cc(/C=N/NC(=O)Cc2ccccc2)c2ccccc21 [Compound 7b, (E)-N'-{[1-(Methylsulfonyl)-1H-indol-3-yl]methylene}-2-phenylacetohydrazide]
AChE
  AChE inhibition in words, compared to reference drugs (tacrine and donepezil): less activity

## CS(=O)(=O)n1cc(/C=N/NC(=O)c2ccccc2)c2ccccc21
other
  melting point: 114 to 116 °C

## COc1cc(CC(=O)Nc2ccc(C(=O)/C=C/c3cn(S(C)(=O)=O)c4ccccc34)cc2)cc(OC)c1OC
other
  melting point: 176 to 178 °C

## CS(=O)(=O)n1cc(/C=N/NC(=O)c2sc(=S)n(-c3ccccc3)c2N)c2ccccc21 [Compound 10b, (E)-4-Amino-N'-{[1-(methylsulfonyl)-1H-indol-3-yl]methylene}-3-phenyl-2-thioxo-2,3-dihydrothiazole-5-carbohydrazide]
Aβ1–42
  IC50: 5.16 µM
BuChE
  IC50: 47.4 nM
AChE
  IC50: 64.5 nM
